Consider nine compounds from patent publication US10611728B2, “Isoindoline compositions and methods for treating neurodegenerative disease” (priority 2014, dated 2020).

“Also recorded” adds a separate entry of the source.

Data set [1] can be described thus: Microsomal stability in mouse liver microsomes (MLM). The format is in vitro ADME. The note with it: mouse, microsomes. The procedure: A first pharmacokinetic study was performed in microsomes of mice mouse liver microsomes, MLM) by a commercial contract research organization. The studies were performed according to Obach, R. S et al. (1997) J. Pharmacol. Exp. Ther., 283: 46-58, which is incorporated herein by reference.

For another data set, the system named is neuronal cultures. Kind of data set: Functional neuronal phenotype in neuronal cultures. The format is cell-based.
For data set [2], the system named is Abeta oligomer-induced synapse loss in primary hippocampal neurons. Kind of data set: Abeta 1-42 oligomer synapse loss assay. Format: cell-based, rat. The note with it: Abeta 42 oligomers.
Protocol: In this assay, Abeta oligomers are brought in contact with mature primary neurons in culture and their binding was determined by immunohistochemistry (anti-Abeta antibody) and quantified by image processing. The amount of Abeta in neuronal dendrites is assessed by counting the number of labeled puncta on the neuritis. […] This labeling is associated with synapses, co-localizing with the post-synaptic scaffold protein PSD-95 (Lacor et al., '04). […] The number of synapses can also be quantified in this assay by immunofluorochemistry.
Primary hippocampal neuronal culture is established as in the membrane trafficking assay above. […] Pretreatment with test compounds for 1 hr and addition of Abeta oligomers or no oligomer (vehicle alone) is followed by incubation for an additional 23 hrs.
The plates are then washed 3× with PBS for 5 min each. The plates are blocked at RT for 1 hr in 5% goat serum and 0.5% Triton X-100 in PBS. Primary antibodies (anti-MAP 2 polyclonal, Millipore # AB5622 and anti-Beta Amyloid 6E10 monoclonal, Covance # SIG-39300, at 1 microgram/ml, and rabbit polyclonal anti-synaptophysin, Anaspec, at 0.2 microgram/ml) were diluted 1:1000 in 5% goat serum with PBS. Primary antibodies are incubated overnight at 4° C. The plates are then washed 3× with PBS for 5 min each. Secondary antibodies (Alex Flor 488 polyclonal, Invitrogen # A11008 and Alexa Flor 647 monoclonal, Invitrogen # A21235) are diluted 1:1000 in 5% goat serum with PBS. Secondary antibodies are incubated at RT for 1 hr. The plates are washed once with PBS. DAPI (4′,6-diamidino-2-phenylindole, Invitrogen) is then applied at 0.03 ug/ul and incubated at RT for 5 min, then washed with PBS.
The subject of the next data set is neurons. The note with it: neuronal cultures treated 24 hours; cited from earlier work.
The next data set has as its system caspase-3. As to conditions: cited from earlier work; for caspase-3 activation by ligand: tumor cells and neurons.

Protocol for neuronal cultures: Neuronal cultures are treated with various concentrations of sigma compounds for 24 hours and nuclear intensity compared to vehicle is measured.

In the case of `CC(C)Oc1cc(CC[C@@H](C)N2Cc3cc4c(cc3C2)OCO4)ccc1O` [compound 25], the “Mouse liver microsomes, MLM t½” value in data set [1] is 4 min. The neuronal phenotype entry in the data set on neuronal cultures is “Inactive/IAACon”. The matching figures for `CC(C)Oc1cc(CCC(C)(C)N2Cc3cc4c(cc3C2)OCO4)ccc1O` [compound 29]: 6 min and “Inactive/IAACon”. In the case of `CCC(Oc1ccc(Cl)cc1)C(=O)OC1CC2CCC(C1)N2C` (centres unmarked) [SM-21], in data set [2], the “elimination of Abeta oligomer-induced synapse loss” value is “only weakly active in eliminating synapse loss” and the “recovery of synapse loss” value was determined as 20%. On to `O=C(CCCN1CCC(O)(c2ccc(Cl)cc2)CC1)c1ccc(F)cc1` [haloperidol], for which the “elimination of Abeta oligomer-induced synapse loss” value in data set [2] was “completely eliminated synapse loss”. Consider `CCCN(CCC)CCc1ccc(OC)c(OCCc2ccccc2)c1` [NE-100], for which, in data set [2], the “elimination of Abeta oligomer-induced synapse loss” value is “completely eliminated synapse loss”. `C[C@H](CCc1ccc(OC(=O)N(C)C)c(OC(F)(F)F)c1)N1Cc2cccc(F)c2C1` [compound 41]: the “Mouse liver microsomes, MLM t½” value in data set [1] was found to be 9 min. Further, the neuronal phenotype result in the data set on neuronal cultures is listed as “Inactive/IAACon”. `COc1ccc(C)cc1NC(=O)OC1C[C@H]2CCC[C@@H](C1)N2CCCCCCN` (some centres unmarked) [SV-119]: the “nuclear morphology / nuclear intensity in neurons” value with neurons was “cause significant abnormal nuclear morphology in neurons”. The “caspase-3 activation by ligand” value with caspase-3 is “activate caspase-3 in tumor cells and neurons”. Take `COc1cc2c(cc1OC)CN(CCCCNC(=O)c1cc(C)ccc1OC)CC2` [RHM-1, N-[4-(3,4-dihydro-6,7-dimethoxyisoquinolin-2(1H)-yl)butyl]-2-methoxy-5-methylbenzamide]: in the data set on neurons, the “nuclear morphology / nuclear intensity in neurons” value is recorded as “do not decrease nuclear intensity”. Also, in the data set with caspase-3, the “caspase-3 activation by ligand” value is recorded as “do not induce caspase-3 activity”. For the same compound, the “inhibition of caspase-3 activation in tumor cells” value in the data set on caspase-3 (tumor cells) was “inhibits the activation in tumor cells”. With `Fc1ccc(-n2cc(CCCCN3CCC4(CC3)OCc3ccccc34)c3ccccc32)cc1` [Siramesine], the “nuclear morphology / nuclear intensity in neurons” value with neurons was “cause significant abnormal nuclear morphology in neurons”. Also, the “caspase-3 activation by ligand” value in the data set on caspase-3 is “activate caspase-3 in tumor cells and neurons; also recorded: induces caspase-3 activity”.
